One experiment relates to Oct4 promoter. To be noted: combined TSA and 5Aza 2′ deoxycytidine treatment of TE; cited from earlier work.
The subject of the next experiment is HDAC1. Briefly: HDAC1 immunostaining (confocal microscopy) in HeLa cells. Particulars: FIG. 15.
A further experiment relates to hESC. Briefly: Chromatin mobility by time-lapse confocal microscopy of GFP-H2B transfected hESC. The experiment is classed as cell-based, human. Particulars: hESC transfected with GFP-H2B; data not shown. How it is done: Chromatin movement was further analyzed in hESC transfected with the fluorescent histone GFP-H2B (FIG. 4). Single confocal slices at 0.4 μm spacing (FIG. 4A) show density variations, including low-density voids (arrow in FIG. 4A, 0.4 μm). The movement of cell-specific bright chromatin densities was analyzed by overlaying images at 0, 5 and 10 min, assigned to the blue, green and red channels respectively (FIGS. 4B-F) and by vector analysis where movement of bright spots was traced with a yellow line at 1 min intervals and red arrows were placed at the last position of the spot (FIG. 4G). Different kinds of nuclear movement were detected including internal mixing of chromatin, indicated by movement of bright chromatin domains without envelope deformation (pluripotent hESC, FIG. 4B), deformation of the envelope and chromatin (pluripotent hESC, FIG. 4C), and multidirectional streaming of chromatin (2 day differentiated hESC, FIG. 4D). Long-range coordination of chromatin movement was infrequent in hESC and prevalent, albeit at slower speeds, in differentiated cells. An increase in coherence length was most noticeable in 5-week differentiated hESC (FIG. 4E). In contrast, endothelial cells show small amplitude, sub-em tethered stochastic movement (FIG. 4F) as reported previously for somatic cells (Marshall, Straight et al. 1997). […]

SMILES strings stand for the structures.

`Nc1ncn([C@H]2C[C@H](O)[C@@H](CO)O2)c(=O)n1` [5Aza 2′ deoxycytidine]: in the experiment with Oct4 promoter, the Oct4 expression result is “induces Oct4 expression” and the Oct4 promoter methylation result was “hypomethylates the Oct4 promoter”.

As to `CC(/C=C/C(=O)NO)=C\[C@@H](C)C(=O)c1ccc(N(C)C)cc1` [TSA], the HDAC1 staining entry in the experiment on HDAC1 is on record as “complete absence of HDAC1 staining”. For the same molecule, in the experiment with Oct4 promoter, the Oct4 expression entry is “induces Oct4 expression” and the Oct4 promoter methylation result was “hypomethylates the Oct4 promoter”.

`C=C1[C@@H](C)[C@H]2[C@H](Cc3ccccc3)NC(=O)[C@]23[C@H](OC(C)=O)/C=C/[C@@](C)(O)C(=O)[C@@H](C)C/C=C/[C@H]3[C@@H]1O` [cytochalasin D]: in the experiment on hESC, the “effect on chromatin mobility” value is reported as “slight acceleration of chromatin mobility”.

As for `COC(=O)Nc1nc2ccc(C(=O)c3cccs3)cc2[nH]1` [nocodazole], the “effect on chromatin mobility” value in the experiment with hESC is on record as “no effect on chromatin mobility”.

These data come from patent US20100002929A1, “Image-based methods for measuring global nuclear patterns as epigenetic markers of cell differentiation” (The Charles Stark Draper Laboratory, Inc., priority 2004, published 2010).
